Results on one substance are retold here after paper PMC3981819, “Signaling Properties and Pharmacological Analysis of Two Sulfakinin Receptors from the Red Flour Beetle, Tribolium castaneum” (PLoS ONE, 2014).

Usually EC50 stands for the concentration giving half of the maximal effect.

Assay [1] deals with Trica-SKR1. Put plainly: Aequorin-luminescence assay, CHO-WTA11 cells (Gα16) transfected with Trica-SKR1. The format is cell-based, Tribolium castaneum. To be noted: aequorin bioluminescence. On the procedure: (§1) General pharmacological studies were performed in Chinese Hamster Ovary (CHO) WTA11 cells, stably coexpressing apoaequorin, a zeocin resistance gene and the promiscuous Gα16, which couples most agonist-induced GPCRs to the phospholipase C and Ca^2+ pathway irrespective of their natural signaling cascade. CHO-PAM28 cells stably expressing apoaequorin and a puromycin resistance gene but not Gα16 and HEK293T cells (Invitrogen) were used to determine possible effects on Ca^2+ and/or cAMP second messenger systems, respectively. All cell lines were cultured in Dulbecco’s Modified Eagles Medium nutrient mixture F12-Ham (DMEM/F12; Invitrogen) supplemented with 1% penicillin/streptomycin (10000 units/ml penicillin and 10 mg/ml streptomycin in 0.9% NaCl; Invitrogen) to prevent bacterial contamination of gram-positive and gram-negative bacteria. In CHO-WTA11 culture medium 250 μg/ml zeocin (Invitrogen) was added as a selection marker, while CHO-PAM28 culture medium was supplemented with 5 μg/ml puromycin to select cells stably expressing apoaequorin. All cell culture media were supplemented with 10% fetal bovine serum (inactivated at […]; Sigma-Aldrich).
(§2) Cells were cultured in vitro as a monolayer at 37°C with a constant supply of 5% CO2 and were subcultivated twice a week. Transfections of cells were performed in T75 flasks at 60–80% confluency. Transfection reagent for CHO cells was prepared by combining 3.75 ml Opti-MEM I (Invitrogen), 7.5 μg plasmid DNA and 18.75 μl of Plus Reagent (Invitrogen). After gently mixing and 5 min incubation at room temperature 45 μl of Lipofectamine LTX was added to the mixture. This transfection medium was incubated for 30 min at room temperature and added dropwise to the cells, supplemented with 3 ml of fresh culture medium. HEK 293T cells were cotransfected with a receptor construct (6 μg) and CRE-luciferase reporter construct (3 μg), consisting of the open reading frame of the luciferase gene, downstream of a multimerized cAMP-response-element (CRE) and promoter. After transfection, cells were grown overnight before an additional 20 ml of culture medium was supplemented. Cells were again incubated overnight for a final growth phase before luminescence screens were performed.
(§3) The aequorin luminescence assay was used to measure Ca^2+ signaling in CHO cell lines. Cells were detached using phosphate buffered saline (PBS) containing 0.2% EDTA and collected in 10 ml of DMEM/F-12 (without phenol red, with L-glutamine and 10 mM HEPES; Gibco). The viable cells were quantified using a NucleoCounter NC-100 (Chemometic). Cells were pelleted by 4 min centrifugation at 800 rpm at room temperature and resuspended in DMEM/BSA (DMEM/F-12 without phenol red, with L-glutamine and 10 mM HEPES, 0.1% bovine serum albumin) at a concentration of 5×10^6 cells/ml. Cells were then shielded from light and Coelenterazine H (Invitrogen) was added at a final concentration of 5 μM. Cells were gently shaken at room temperature for 4 h under dark conditions, allowing the aequorin holoenzyme to be reconstituted. After a 10-fold dilution in DMEM/BSA, cells were incubated another 30 min under the same conditions. Pharmacological ligands were dissolved in DMEM/BSA and 50 μl of ligand was added to wells of a 96-well plate. Wells containing 50 μl of DMEM/BSA were used as a negative control, while wells containing 1 μM of ATP served as positive control. Incubated cells were added to the wells of the 96-well plate and light emission was measured for 30 s using a Mithras LB940 (Berthold Technologies). After 30 s Triton X-100 (0.2% in DMEM/BSA) was added, lysing the cells and thus serving as an internal reference. Light emission was measured for an additional 8 s after Triton X-100 was introduced in the wells. Light emission from each well was calculated relative to the total response (ligand+Triton X-100) using the output file of Mikrowin2000 software (Mikrotek). Further analysis was done in Graphpad Prism 5.

The subject of assay [2] is Trica-SKR2. Put plainly: Aequorin-luminescence assay, CHO-WTA11 cells (Gα16) transfected with Trica-SKR2. Format: cell-based, Tribolium castaneum. The note with it: aequorin bioluminescence. The method, then:
as §1, §2, §3

Assay [3] deals with Trica-SKR1. Put plainly: Aequorin-luminescence assay, CHO-PAM28 cells (no Gα16) transfected with Trica-SKR1. Format: cell-based, Tribolium castaneum. The note with it: CHO-PAM28 cells without Gα16; aequorin bioluminescence (Ca2+); three independent measurements in duplicate; read-out: EC50 for receptor activation in CHO-PAM28 cells, Trica-SKR1. The method, then: (§4) General pharmacological studies were performed in Chinese Hamster Ovary (CHO) WTA11 cells, stably coexpressing apoaequorin, a zeocin resistance gene and the promiscuous Gα16, which couples most agonist-induced GPCRs to the phospholipase C and Ca^2+ pathway irrespective of their natural signaling cascade. CHO-PAM28 cells stably expressing apoaequorin and a puromycin resistance gene but not Gα16 and HEK293T cells (Invitrogen) were used to determine possible effects on Ca^2+ and/or cAMP second messenger systems, respectively. […]
(§5) Cells were cultured in vitro as a monolayer at 37°C with a constant supply of 5% CO2 and were subcultivated twice a week. […] HEK 293T cells were cotransfected with a receptor construct (6 μg) and CRE-luciferase reporter construct (3 μg), consisting of the open reading frame of the luciferase gene, downstream of a multimerized cAMP-response-element (CRE) and promoter. […] Cells were again incubated overnight for a final growth phase before luminescence screens were performed.
(§6) The aequorin luminescence assay was used to measure Ca^2+ signaling in CHO cell lines. […] The viable cells were quantified using a NucleoCounter NC-100 (Chemometic). […] Incubated cells were added to the wells of the 96-well plate and light emission was measured for 30 s using a Mithras LB940 (Berthold Technologies). […]

Assay [4] has as its system Trica-SKR2. Briefly: Aequorin-luminescence assay, CHO-PAM28 cells (no Gα16) transfected with Trica-SKR2. Format: cell-based, Tribolium castaneum. The note with it: CHO-PAM28 cells without Gα16; aequorin bioluminescence (Ca2+); three independent measurements in duplicate; read-out: EC50 for receptor activation in CHO-PAM28 cells, Trica-SKR2. On the procedure: as §4, §5, §6

The test system of assay [5] is Trica-SKR1. Put plainly: CRE-luciferase reporter-gene assay (cAMP), HEK293T cells transfected with Trica-SKR1. Format: cell-based, Tribolium castaneum. The note with it: HEK293T cells cotransfected with CRE-luciferase; 200 μM IBMX; 3–4 h at 37°C; six independent measurements in duplicate; read-out: EC50, luciferase bioluminescence (cAMP), Trica-SKR1. On the procedure: as §4, §5
(§7) The luciferase reporter-gene assay was used to quantify positive or negative coupling of the receptor to cAMP in HEK293T cells. Cotransfected HEK293T cells were detached and the viable cells were quantified using the NucleoCounter NC-100 (Chemometic) as described for CHO cells. […] Data were analyzed as described for CHO cells.
For orientation: Reporter assays use an easily measured gene product as a stand-in for the process of interest.

For assay [6], the system named is Trica-SKR2. Briefly: CRE-luciferase reporter-gene assay (cAMP), HEK293T cells transfected with Trica-SKR2. Format: cell-based, Tribolium castaneum. To be noted: HEK293T cells cotransfected with CRE-luciferase; 200 μM IBMX; 3–4 h at 37°C; three independent measurements in duplicate; read-out: EC50, luciferase bioluminescence (cAMP), Trica-SKR2. On the procedure: as §4, §5, §7

Assay [7] deals with CHO-PAM28 cells transfected with empty pcDNA3.1/V5-His-TOPO TA expression vector. Put plainly: Aequorin-luminescence assay, CHO-PAM28 cells transfected with empty expression vector. The format is cell-based, Chinese Hamster. To be noted: aequorin bioluminescence. The method, then:
as §4, §5, §6

Assay [8] has as its system HEK293T cells transfected with empty pcDNA3.1/V5-His-TOPO TA expression vector. Put plainly: CRE-luciferase reporter-gene assay, HEK293T cells transfected with empty expression vector. The format is cell-based. The note with it: CRE-luciferase bioluminescence. On the procedure: as §4, §5, §7
Where [9] appears, read: peptide at 1 μM, relative to sTrica-SK(5–13) at 1 μM = 100%, at least three biological repeats, each in duplicate.

Take “FDDY(SO3H)GHMRFa [sTrica-SK(5–13), sulfated C-terminal fragment of T. castaneum SK comprising amino acids 5–13, reference compound]”: the “concentration at which maximal response was attained, Trica-SKR1” value in assay [1] is 100 nM. Moreover, the EC50 was determined as 0.0995 ± 0.028 nM in assay [1] (1 fM to 1 μM, ± 95% confidence interval, three independent measurements in duplicate); 0.524 ± 0.2 nM in assay [2] (1 fM to 1 μM, three independent measurements in duplicate); 0.0585 ± 0.024 nM in assay [3]; 1.61 ± 0.45 nM in assay [4]; 0.0049 ± 0.0042 nM in assay [5]; 1.4 ± 0.3 nM in assay [6]. Besides, the “% Trica-SKR1 (relative activation)” value in assay [1] (setting [9]) came out at 100.0%. Moreover, the “concentration at which maximal response was attained, Trica-SKR2” value in assay [2] is given as 100 nM. The “% Trica-SKR2 (relative activation)” value in assay [2] (setting [9]) was 100.0%. The “signal in empty-vector transfected CHO-PAM28 cells” value in assay [7] is reported as “no signal was observed”. Also, the “signal in empty-vector transfected HEK293T cells” value in assay [8] was “no signal was observed”.
